According to article PMC3184174, “Pharmacological Blockade of TRPM8 Ion Channels Alters Cold and Cold Pain Responses in Mice” (PLoS ONE, 2011):
pIC50: −log10 of the molar value.

Experiments:
TRPM8 [1] = biological target: T1, TRPM8 (Mus musculus, UniProt Q8R4D5); experiment: whole-cell voltage clamp of menthol-evoked currents in mTRPM8-transfected HEK293T cells; also Fura-2 calcium imaging; format: cell-based
TRPM8 [2] = biological target: T1, TRPM8; experiment: whole-cell voltage clamp (V1/[…] shift with […] menthol) and Fura-2 calcium imaging ([…]) in mTRPM8-transfected HEK293T cells; format: cell-based

T1 sequence (Q8R4D5 whole entry): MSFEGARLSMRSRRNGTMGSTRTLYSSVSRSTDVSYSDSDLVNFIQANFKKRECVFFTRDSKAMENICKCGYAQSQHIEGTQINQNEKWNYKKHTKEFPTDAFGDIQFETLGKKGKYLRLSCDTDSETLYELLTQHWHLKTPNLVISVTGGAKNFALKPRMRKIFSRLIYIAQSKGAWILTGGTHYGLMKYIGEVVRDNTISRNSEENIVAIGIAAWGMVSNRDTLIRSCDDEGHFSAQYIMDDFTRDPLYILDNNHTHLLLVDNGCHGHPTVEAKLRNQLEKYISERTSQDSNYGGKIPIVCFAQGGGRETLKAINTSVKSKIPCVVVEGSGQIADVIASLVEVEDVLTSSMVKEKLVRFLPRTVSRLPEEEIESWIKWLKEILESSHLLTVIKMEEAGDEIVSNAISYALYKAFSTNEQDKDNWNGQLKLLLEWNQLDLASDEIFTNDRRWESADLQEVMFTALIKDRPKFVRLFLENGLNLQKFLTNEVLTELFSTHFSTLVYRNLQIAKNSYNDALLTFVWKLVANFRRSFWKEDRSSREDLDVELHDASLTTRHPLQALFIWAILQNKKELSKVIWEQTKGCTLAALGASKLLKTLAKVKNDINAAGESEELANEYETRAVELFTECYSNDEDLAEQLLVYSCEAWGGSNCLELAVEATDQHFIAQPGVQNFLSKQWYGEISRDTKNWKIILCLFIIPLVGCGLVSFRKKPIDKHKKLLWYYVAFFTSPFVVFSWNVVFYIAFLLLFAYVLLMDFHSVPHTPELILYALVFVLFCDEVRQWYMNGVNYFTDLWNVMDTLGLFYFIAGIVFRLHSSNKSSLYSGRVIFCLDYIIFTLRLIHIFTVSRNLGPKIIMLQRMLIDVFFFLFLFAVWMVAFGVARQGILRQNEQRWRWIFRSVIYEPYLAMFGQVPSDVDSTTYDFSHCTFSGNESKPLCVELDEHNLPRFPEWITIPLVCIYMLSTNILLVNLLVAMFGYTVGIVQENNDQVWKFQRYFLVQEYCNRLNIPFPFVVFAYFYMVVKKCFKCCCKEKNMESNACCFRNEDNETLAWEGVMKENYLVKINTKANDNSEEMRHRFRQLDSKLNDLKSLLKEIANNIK

COc1cc(CN(CCN)C(=O)OC(C)c2ccccc2)ccc1OCc1ccccc1 (centres unmarked) [PBMC, 1-phenylethyl-4-(benzyloxy)-3-methoxybenzyl(2-aminoethyl)carbamate]
pIC50 (TRPM8 [1]): 9.40

CC1CCC(C(C)C)C(O)C1 (centres unmarked) [menthol]
V1/2 shift with 1 mM menthol (TRPM8 [2]): 79.1±21.1 mV
